Assay: Inhibition of RNA-dependent RNA polymerase in ZIKV SL0612 infected in African green monkey Vero cells assessed as reduction in virus-induced cytopathic effect measured after 96 hrs post-infection by MTS assay

SMILES | EC50 [µM]
O=c1ccn([C@H]2[C@H](O)[C@H](O)[C@@H](CO)[C@@H]2F)c(=O)[nH]1 | > 100
Nc1ncnc2c1ncn2[C@H]1[C@H](O)[C@H](O)[C@@H](CO)C1(F)F | 0.26
CNc1ncnc2c1ncn2[C@H]1[C@H](O)[C@H](O)[C@@H](CO)C1(F)F | > 100
O=c1ccn([C@H]2[C@H](O)[C@H](O)[C@@H](CO)C2(F)F)c(=O)[nH]1 | > 100
CC(C)OC(=O)[C@H](C)N[P@](=O)(OC[C@@H]1[C@@H](O)[C@@H](O)[C@H](n2cnc3c(N)ncnc32)C1(F)F)Oc1ccccc1 | 1.75
CNc1ncnc2c1ncn2[C@H]1[C@H](O)[C@H](O)[C@@H](CO)[C@H]1F | > 100
Nc1ncnc2c1ncn2[C@@H]1C[C@H](CO)[C@@H](O)[C@H]1O [3-(6-Amino-purin-9-yl)-5-hydroxymethyl-cyclopentane-1,2-diol] | 0.64

Now from value to compound:

EC50 [µM] | SMILES
> 100 | O=c1ccn([C@H]2[C@H](O)[C@H](O)[C@@H](CO)[C@H]2F)c(=O)[nH]1
> 100 | CC(C)OC(=O)[C@H](C)N[P@](=O)(OC[C@@H]1[C@@H](O)[C@@H](O)[C@H](n2ccc(=O)[nH]c2=O)[C@@H]1F)Oc1ccccc1
> 100 | Nc1ccn([C@H]2[C@H](O)[C@H](O)[C@@H](CO)C2(F)F)c(=O)n1
> 100 | CC(C)OC(=O)[C@H](C)N[P@](=O)(OC[C@@H]1[C@@H](O)[C@@H](O)[C@H](n2ccc(=O)[nH]c2=O)C1(F)F)Oc1ccccc1
> 100 | Nc1ccn([C@H]2[C@H](O)[C@H](O)[C@@H](CO)[C@H]2F)c(=O)n1

From BindingDB's records for doi:10.1021/acs.jmedchem.9b00781 (Seoul National University, 2019)
